Values quoted from earlier work in the PKSmart pharmacokinetics tables (Seal et al. 2025).

How the values were obtained:
[1] = Lombardo et al. 2013, J Clin Pharmacol 53:178, doi 10.1177/0091270012440282; details: for Vd / clearance: in vivo, iv; for fraction unbound: plasma
[2] = Lombardo, Berellini, Obach 2018, Drug Metab Dispos 46:1466, doi 10.1124/dmd.118.082966; details: human; for MRT / Vd / clearance / half-life: in vivo, iv; for fraction unbound: plasma

Row | SMILES | Vd ([1]; dog) | clearance ([1]; dog) | fraction unbound ([1]; dog) | Vd ([1]; monkey) | clearance ([1]; monkey) | fraction unbound ([1]; monkey) | Vd ([1]; rat) | clearance ([1]; rat) | fraction unbound ([1]; rat) | MRT [2] | Vd [2] | clearance [2] | half-life [2] | fraction unbound [2]
1 | Cc1cc(=O)c(C(=O)NC(C(=O)NC2C(=O)N3C(C(=O)O)=C(CSc4nnnn4C)CS[C@H]23)c2ccc(O)cc2)c[nH]1 (stereo not given in full) | 0.49 L/kg | 5.7 mL/min/kg | 0.7 | 0.1 L/kg | 0.5 mL/min/kg | 0.07 | 0.26 L/kg | 9.5 mL/min/kg | 0.54 | 5.2 h | 0.15 L/kg | 0.48 mL/min/kg | 5.4 h | 0.03
2 | NC(=O)c1csc([C@@H]2O[C@H](CO)[C@@H](O)[C@H]2O)n1 | 0.99 L/kg | – | 0.85 | 2 L/kg | – | 1 | – | – | – | 7.6 h | 1.1 L/kg | – | 5.9 h | 0.47
3 | CCN(C(C)=O)c1cccc(-c2ccnc3c(C#N)cnn23)c1 | – | – | – | – | – | – | 1.72 L/kg | 20.7 mL/min/kg | – | 1.4 h | 1.3 L/kg | – | – | 0.4
4 | C[C@@H]1CN(C2CCC(C#N)(c3ccc(F)cc3)CC2)CC[C@]1(C(=O)O)c1ccccc1 (stereo not given in full) | – | – | – | – | – | – | 1.36 L/kg | 27 mL/min/kg | 0.46 | 45.3 h | 1.17 L/kg | 0.43 mL/min/kg | 33 h | 0.453
5 | Nc1ccn([C@H]2CC[C@@H](CO)O2)c(=O)n1 | – | – | – | 0.98 L/kg | 10.3 mL/min/kg | – | 1 L/kg | 11.2 mL/min/kg | 0.85 | – | – | – | – | 0.96
6 | COc1ccnc(C[S+](O)c2nc3ccc(OC(F)F)cc3[n-]2)c1OC (stereo not given) | – | – | – | – | – | – | 0.35 L/kg | 8.5 mL/min/kg | – | 1.3 h | 0.17 L/kg | 2.2 mL/min/kg | 1.9 h | 0.02
7 | COCCCOc1ccnc(C[S+](O)c2nc3ccccc3[n-]2)c1C (stereo not given) | 2.62 L/kg | 86 mL/min/kg | 0.0864 | – | – | – | 1.04 L/kg | 82.4 mL/min/kg | 0.073 | 0.92 h | 0.22 L/kg | 4 mL/min/kg | 1 h | –
8 | OC(Cn1cncn1)(Cn1cncn1)c1ccc(F)cc1F | 0.7 L/kg | 0.65 mL/min/kg | – | – | – | – | 0.97 L/kg | 4.2 mL/min/kg | 0.9 | 40 h | 0.75 L/kg | 0.31 mL/min/kg | 30 h | –
9 | NC1(C(=O)O)CC1 | 0.7 L/kg | 0.4 mL/min/kg | – | 0.72 L/kg | 3.1 mL/min/kg | – | 0.64 L/kg | 3.2 mL/min/kg | – | 7.8 h | 0.73 L/kg | 1.5 mL/min/kg | 5.9 h | –
10 | CC(C)(C)NC(=O)C1CC[C@H]2[C@@H]3CC[C@H]4NC(=O)C=C[C@]4(C)[C@H]3CC[C@]12C (stereo not given in full) | – | – | 0.18 | – | – | – | – | – | – | 7.6 h | 1.1 L/kg | – | 6 h | –
11 | COc1ccc(Cl)cc1[C@]1(F)C(=O)Nc2cc(C(F)(F)F)ccc21 | 4.06 L/kg | 3.5 mL/min/kg | 0.0067 | – | – | – | 6.3 L/kg | 43 mL/min/kg | – | 11 h | 10 L/kg | 15 mL/min/kg | 37 h | 0.0038
12 | COc1cc([C@@H]2c3cc4c(cc3[C@@H](O[C@@H]3O[C@@H]5CO[C@@H](C)O[C@H]5[C@H](O)[C@H]3O)[C@H]3COC(=O)C23)OCO4)cc(OC)c1O (stereo not given in full) | 1.4 L/kg | 13 mL/min/kg | 0.63 | 0.16 L/kg | 1.5 mL/min/kg | 0.0051 | 0.58 L/kg | 23 mL/min/kg | 0.43 | 6 h | 0.18 L/kg | – | 5.7 h | –
13 | O=c1n(CCCN2CCN(c3cccc(Cl)c3)CC2)nc2ccccn12 | – | – | – | – | – | – | 1.76 L/kg | 51.8 mL/min/kg | 0.12 | 6.2 h | 0.52 L/kg | 1.4 mL/min/kg | 7.3 h | 0.08
14 | C=CC1=C(C(=O)O)N2C(=O)C(=NC(=O)C(NOCC(=O)O)c3csc(N)n3)[C@H]2SC1 (stereo not given in full) | 0.24 L/kg | 0.4 mL/min/kg | 0.07 | – | – | – | 0.4 L/kg | 6 mL/min/kg | 0.4 | – | 0.24 L/kg | 1 mL/min/kg | 3.2 h | –
15 | CNC(=O)c1cccc2c(Nc3ccc(NS(C)(=O)=O)cc3OC)c3cccc(C)c3nc12 | 1 L/kg | 3.7 mL/min/kg | 0.0038 | – | – | – | 2 L/kg | 66 mL/min/kg | 0.011 | 1.9 h | 0.3 L/kg | 2.6 mL/min/kg | 2.4 h | 0.0011
16 | CC[C@@]1(O)C(=O)OCc2c1cc1n(c2=O)Cc2cc3c(CN(C)C)c(O)ccc3nc2-1 | – | – | – | – | – | 0.8 | – | – | 0.747 | – | – | – | – | 0.65
17 | CC[C@@H](CO)NCCN[C@@H](CC)CO | 3.8 L/kg | 13 mL/min/kg | – | – | – | – | – | – | – | 2.7 h | 1.7 L/kg | 10 mL/min/kg | 3.1 h | 0.18
18 | NC[C@H]1O[C@H](O[C@H]2[C@H](O)[C@@H](O[C@H]3O[C@H](CO)[C@@H](O)[C@H](N)[C@H]3O)[C@H](N)C[C@@H]2N)[C@H](N)C[C@@H]1O | – | – | – | – | – | – | 0.68 L/kg | 15.7 mL/min/kg | – | 2.4 h | 0.23 L/kg | 1.6 mL/min/kg | 2 h | 1
19 | CCN(CC)CCNC(=O)c1ccc(NS(C)(=O)=O)cc1 | 1.4 L/kg | 9 mL/min/kg | – | – | – | – | 2.08 L/kg | 25.6 mL/min/kg | – | 3.7 h | 0.82 L/kg | 3.7 mL/min/kg | 3.8 h | –
20 | O=c1c(O)c(-c2ccc(O)c(O)c2)oc2cc(O)cc(O)c12 | – | – | – | – | – | – | 0.28 L/kg | 116 mL/min/kg | – | 0.2 h | 0.12 L/kg | 11 mL/min/kg | 0.6 h | 0.009
21 | O=[N+]([O-])O[C@@H]1CO[C@H]2[C@@H]1OC[C@@H]2O | 0.82 L/kg | 6.9 mL/min/kg | – | – | – | – | – | 2.5 mL/min/kg | – | 5.8 h | 0.7 L/kg | 2 mL/min/kg | 4.1 h | –
22 | CON=C(C(=O)NC1C(=O)N2C(C(=O)O)=C(COC(N)=O)CS[C@H]12)c1ccco1 (stereo not given in full) | 1.5 L/kg | 5 mL/min/kg | – | – | – | – | – | – | – | 1.1 h | 0.15 L/kg | 2.2 mL/min/kg | 1.1 h | –
23 | CCOC(=O)c1ncn2c1CN(C)C(=O)c1cc(F)ccc1-2 | 1 L/kg | 16 mL/min/kg | 0.685 | – | – | – | 1.3 L/kg | 147 mL/min/kg | – | 1 h | – | 16 mL/min/kg | 0.78 h | –
24 | O=C(c1ccc(F)cc1)C1CCN(CCn2c(=O)[nH]c3ccccc3c2=O)CC1 | – | 24.7 mL/min/kg | 0.0948 | – | – | – | – | 3.8 mL/min/kg | 0.01 | – | – | – | 12 h | –
25 | CC(C)Oc1ccccc1N1CCN(Cc2cccc(C(=O)N3CCCCC3)c2)CC1 | – | – | – | – | – | – | 1.73 L/kg | 39.2 mL/min/kg | 0.03 | 4.2 h | 1.54 L/kg | 6.17 mL/min/kg | 4.6 h | –
26 | CCN(CC)CCNC(=O)c1cc(Cl)c(N)cc1OC | 1.1 L/kg | 23.1 mL/min/kg | – | – | – | – | 3.3 L/kg | 48 mL/min/kg | 0.426 | 9.4 h | 3.2 L/kg | 5.7 mL/min/kg | 7.2 h | –
27 | COc1cccc([C@@]2(O)CCCC[C@@H]2CN(C)C)c1 | 3.01 L/kg | 54.6 mL/min/kg | 0.745 | – | – | – | 3.86 L/kg | 63.5 mL/min/kg | 0.75 | 7.2 h | 2.8 L/kg | 6.5 mL/min/kg | 5.8 h | –
28 | C#CCCCC(=O)c1cc(C(C)(C)C)c(O)c(C(C)(C)C)c1 | 24.8 L/kg | 30.9 mL/min/kg | – | 10.4 L/kg | 14.9 mL/min/kg | – | 7.9 L/kg | 41.4 mL/min/kg | – | 22.3 h | 12 L/kg | 8.9 mL/min/kg | 50.7 h | –
